Our source for the Ki values is patent publication US9073855B2, “BCL-2 selective apoptosis-inducing agents for the treatment of cancer and immune diseases” (AbbVie Inc., priority 2008, dated 2015).

One test concerns the target GST-Bcl-2 (Homo sapiens, UniProt P10415). The experiment in a line: TR-FRET binding assay, GST-Bcl-2 with F-Bak peptide probe. As to conditions: TR-FRET Binding Affinity, GST-Bcl-2, F-Bak peptide probe. The method, boiled down: (§1)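 Displacement of a fluorescein-labelled Bak peptide from the GST-tagged protein was followed by time-resolved FRET with a terbium anti-GST donor after 3 h incubation at room temperature. Inhibition constants were calculated with Wang's equation.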

The target in another test is GST-Bcl-XL (Homo sapiens, UniProt Q07817). The experiment in a line: TR-FRET binding assay, GST-Bcl-XL with F-Bak peptide probe. The following applies: TR-FRET Binding Affinity, GST-Bcl-XL, F-Bak peptide probe. In outline:
as §1

Chain of GST-Bcl-2 (P10415 whole entry): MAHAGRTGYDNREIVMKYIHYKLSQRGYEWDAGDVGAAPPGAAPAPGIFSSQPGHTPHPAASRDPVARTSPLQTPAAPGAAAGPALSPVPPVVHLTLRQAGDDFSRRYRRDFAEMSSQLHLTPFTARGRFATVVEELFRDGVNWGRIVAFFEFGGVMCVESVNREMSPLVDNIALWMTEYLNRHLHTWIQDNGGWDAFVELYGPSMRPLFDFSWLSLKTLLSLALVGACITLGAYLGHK
Chain of GST-Bcl-XL (Q07817 whole entry): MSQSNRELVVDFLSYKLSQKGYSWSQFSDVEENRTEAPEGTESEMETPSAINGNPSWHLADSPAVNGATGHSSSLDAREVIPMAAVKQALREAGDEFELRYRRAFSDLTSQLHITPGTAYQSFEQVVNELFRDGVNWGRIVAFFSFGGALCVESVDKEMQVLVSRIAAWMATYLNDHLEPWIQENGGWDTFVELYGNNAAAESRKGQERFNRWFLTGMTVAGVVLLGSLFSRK

Take `CN(C)CCOc1cccc(-c2ccc(Cl)cc2)c1CN1CCN(c2ccc(C(=O)NS(=O)(=O)c3ccc(NCC4CCOCC4)c(S(=O)(=O)C(F)(F)F)c3)c(Oc3ccccc3)c2)CC1` [Example 124, 4-[4-({4′-chloro-3-[2-(dimethylamino)ethoxy]-1,1′-biphenyl-2-yl}methyl)piperazin-1-yl]-2-phenoxy-N-({4-[(tetrahydro-2H-pyran-4-ylmethyl)amino]-3-[(trifluoromethyl)sulfonyl]phenyl}sulfonyl)benzamide]: the Ki (usually the dissociation constant of the complex between target and ligand, obtained from inhibition or displacement) was 0.335 nM at GST-Bcl-2 and 73.7 nM on GST-Bcl-XL.

On to `O=C(NS(=O)(=O)c1ccc(NCC2CCOCC2)c([N+](=O)[O-])c1)c1ccc(N2CCN(Cc3cc(OCCN4CCOCC4)ccc3-c3ccc(Cl)cc3)CC2)cc1Oc1ccc2[nH]ccc2c1` [Example 127, 4-(4-{[4′-chloro-4-(2-morpholin-4-ylethoxy)-1,1′-biphenyl-2-yl]methyl}piperazin-1-yl)-2-(1H-indol-5-yloxy)-N-({3-nitro-4-[(tetrahydro-2H-pyran-4-ylmethyl)amino]phenyl}sulfonyl)benzamide], for which the Ki is 0.459 nM at GST-Bcl-2 and above 660 nM at GST-Bcl-XL.

Consider `CN(C)CCNc1ccc(S(=O)(=O)NC(=O)c2ccc(N3CCN(Cc4ccccc4-c4ccc(Cl)cc4)CC3)cc2Oc2ccccc2)cc1[N+](=O)[O-]` [Example 153, 4-{4-[(4′-chloro-1,1′-biphenyl-2-yl)methyl]piperazin-1-yl}-N-[(4-{[2-(dimethylamino)ethyl]amino}-3-nitrophenyl)sulfonyl]-2-phenoxybenzamide], for which the Ki on GST-Bcl-2 was found to be 0.265 nM; at GST-Bcl-XL, 93 nM.

For the molecule `CN(C)CCCCNc1ccc(S(=O)(=O)NC(=O)c2ccc(N3CCN(Cc4ccccc4-c4ccc(Cl)cc4)CC3)cc2Oc2ccccc2)cc1[N+](=O)[O-]` [Example 156, 4-{4-[(4′-chloro-1,1′-biphenyl-2-yl)methyl]piperazin-1-yl}-N-[(4-{[4-(dimethylamino)butyl]amino}-3-nitrophenyl)sulfonyl]-2-phenoxybenzamide], the Ki at GST-Bcl-2 amounted to 0.116 nM; at GST-Bcl-XL it was 6.16 nM.

As to `O=C(NS(=O)(=O)c1ccc(NC2CCN(S(=O)(=O)c3ccccc3)CC2)c([N+](=O)[O-])c1)c1ccc(N2CCN(Cc3ccccc3-c3ccc(Cl)cc3)CC2)cc1Oc1ccccc1` [Example 157, 4-{4-[(4′-chloro-1,1′-biphenyl-2-yl)methyl]piperazin-1-yl}-N-[(3-nitro-4-{[1-(phenylsulfonyl)piperidin-4-yl]amino}phenyl)sulfonyl]-2-phenoxybenzamide], the Ki was 4.45 nM on GST-Bcl-2 and above 660 nM on GST-Bcl-XL.

In the case of `O=C(NS(=O)(=O)c1ccc(NC2CCN(S(=O)(=O)c3cccc4cccnc34)CC2)c([N+](=O)[O-])c1)c1ccc(N2CCN(Cc3ccccc3-c3ccc(Cl)cc3)CC2)cc1Oc1ccccc1` [Example 158, 4-{4-[(4′-chloro-1,1′-biphenyl-2-yl)methyl]piperazin-1-yl}-N-[(3-nitro-4-{[1-(quinolin-8-ylsulfonyl)piperidin-4-yl]amino}phenyl)sulfonyl]-2-phenoxybenzamide], the Ki at GST-Bcl-2 is 64.8 nM; at GST-Bcl-XL, above 660 nM.

Turning to `CN(C)CC[C@H](Nc1ccc(S(=O)(=O)NC(=O)c2ccc(N3CCN(Cc4ccccc4-c4ccc(Cl)cc4)CC3)cc2Oc2ccccc2)cc1[N+](=O)[O-])c1cccs1` [Example 161, 4-{4-[(4′-chloro-1,1′-biphenyl-2-yl)methyl]piperazin-1-yl}-N-[(4-{[(1S)-3-(dimethylamino)-1-thien-2-ylpropyl]amino}-3-nitrophenyl)sulfonyl]-2-phenoxybenzamide], the Ki at GST-Bcl-2 was 1.71 nM; at GST-Bcl-XL it was above 660 nM.

Consider `O=C(NS(=O)(=O)c1ccc(NCc2cccs2)c([N+](=O)[O-])c1)c1ccc(N2CCN(Cc3ccccc3-c3ccc(Cl)cc3)CC2)cc1Oc1ccccc1` [Example 162, 4-{4-[(4′-chloro-1,1′-biphenyl-2-yl)methyl]piperazin-1-yl}-N-({3-nitro-4-[(thien-2-ylmethyl)amino]phenyl}sulfonyl)-2-phenoxybenzamide], for which the results for the Ki on GST-Bcl-2 and on GST-Bcl-XL were 1.35 nM and 167 nM, respectively.

For `O=C(NS(=O)(=O)c1ccc(NCC2CCOCC2)c(S(=O)(=O)C(F)(F)F)c1)c1ccc(N2CCN(Cc3ccccc3-c3ccc(Cl)cc3)CC2)cc1Oc1ccccc1` [Example 163, 4-{4-[(4′-chloro-1,1′-biphenyl-2-yl)methyl]piperazin-1-yl}-2-phenoxy-N-({4-[(tetrahydro-2H-pyran-4-ylmethyl)amino]-3-[(trifluoromethyl)sulfonyl]phenyl}sulfonyl)benzamide], the figures for the Ki at GST-Bcl-2 and on GST-Bcl-XL were 5.62 nM and above 660 nM, respectively.

As to `O=C(NS(=O)(=O)c1ccc(NCCn2ccnn2)c([N+](=O)[O-])c1)c1ccc(N2CCN(Cc3ccccc3-c3ccc(Cl)cc3)CC2)cc1Oc1ccccc1` [Example 164, 4-{4-[(4′-chloro-1,1′-biphenyl-2-yl)methyl]piperazin-1-yl}-N-[(3-nitro-4-{[2-(1H-1,2,3-triazol-1-yl)ethyl]amino}phenyl)sulfonyl]-2-phenoxybenzamide], the Ki on GST-Bcl-2 was found to be 0.963 nM; at GST-Bcl-XL it was 138 nM.

On to `O=C(NS(=O)(=O)c1ccc(NCCn2nccn2)c([N+](=O)[O-])c1)c1ccc(N2CCN(Cc3ccccc3-c3ccc(Cl)cc3)CC2)cc1Oc1ccccc1` [Example 165, 4-{4-[(4′-chloro-1,1′-biphenyl-2-yl)methyl]piperazin-1-yl}-N-[(3-nitro-4-{[2-(2H-1,2,3-triazol-2-yl)ethyl]amino}phenyl)sulfonyl]-2-phenoxybenzamide], for which the Ki on GST-Bcl-2 worked out at 0.823 nM; at GST-Bcl-XL, 36.6 nM.

In the case of `O=C(NS(=O)(=O)c1ccc(NCCc2ccncc2)c([N+](=O)[O-])c1)c1ccc(N2CCN(Cc3ccccc3-c3ccc(Cl)cc3)CC2)cc1Oc1ccccc1` [Example 169, 4-{4-[(4′-chloro-1,1′-biphenyl-2-yl)methyl]piperazin-1-yl}-N-({3-nitro-4-[(2-pyridin-4-ylethyl)amino]phenyl}sulfonyl)-2-phenoxybenzamide], the Ki at GST-Bcl-2 amounted to 0.97 nM; at GST-Bcl-XL it was 88.6 nM.

In the case of `O=C(NS(=O)(=O)c1ccc(NCC2CCOCC2)c([N+](=O)[O-])c1)c1ccc(N2CCN(Cc3cc(N4CCOCC4)ccc3-c3ccc(Cl)cc3)CC2)cc1Oc1cccc2[nH]ccc12` [Example 198, 4-{4-[(4′-chloro-4-morpholin-4-yl-1,1′-biphenyl-2-yl)methyl]piperazin-1-yl}-2-(1H-indol-4-yloxy)-N-({3-nitro-4-[(tetrahydro-2H-pyran-4-ylmethyl)amino]phenyl}sulfonyl)benzamide], the values for the Ki at GST-Bcl-2 and on GST-Bcl-XL were 3.97 nM and above 660 nM, respectively.

For `CC1(C)CCC(CN2CCN(c3ccc(C(=O)NS(=O)(=O)c4ccc(NN5CCN(CCO)CC5)c([N+](=O)[O-])c4)c(Oc4ccc5[nH]ccc5c4)c3)CC2)=C(c2ccc(Cl)cc2)C1` [Example 233, 4-(4-{[2-(4-chlorophenyl)-4,4-dimethylcyclohex-1-en-1-yl]methyl}piperazin-1-yl)-N-[(4-{[4-(2-hydroxyethyl)piperazin-1-yl]amino}-3-nitrophenyl)sulfonyl]-2-(1H-indol-5-yloxy)benzamide], the Ki at GST-Bcl-2 is 0.243 nM; on GST-Bcl-XL, above 660 nM.
